Source: PubChem BioAssay AID248 (DTP/NCI, 2004)
Values joined by “and” are separate entries in the source; they are usually repeats but may differ in a detail not shown here. Identical values can stand only once. Toxic doses and inconclusive results are not listed. Rule as the data show it: active = T/C of 150% or more; inactive = T/C below 125%.

Test system: L1210 leukemia ip in BDF1 mice, survival T/C
Assay: NCI In Vivo Anticancer Drug Screen. Data for tumor model L1210 Leukemia (intraperitoneal) in B6D2F1 (BDF1) mice
Details: endpoint: mean survival time, higher = longer survival
How it was run: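 In this screen, tumor-bearing mice given compound are compared to those given vehicle, and their survival values are reported as a treated-to-control quotient.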

[1] = dose: 100.0 mg/kg/injection, schedule: Q01DX009 (ip), vehicle: saline with Tween-80
[2] = dose: 200.0 mg/kg/injection, schedule: Q01DX009 (ip), vehicle: saline with Tween-80
[3] = dose: 100.0 mg/kg/injection, schedule: Q04DX003 (ip), vehicle: Klucel (hydroxypropylcellulose) (HPC)
[4] = dose: 200.0 mg/kg/injection, schedule: Q04DX003 (ip), vehicle: Klucel (hydroxypropylcellulose) (HPC)
[5] = dose: 400.0 mg/kg/injection, schedule: Q04DX003 (ip), vehicle: Klucel (hydroxypropylcellulose) (HPC)
[6] = dose: 100.0 mg/kg/injection, schedule: Q04DX002 (ip), vehicle: Klucel (hydroxypropylcellulose) (HPC)
[7] = dose: 200.0 mg/kg/injection, schedule: Q04DX002 (ip), vehicle: Klucel (hydroxypropylcellulose) (HPC)
[8] = dose: 100.0 mg/kg/injection, schedule: Q01DX001 (ip), vehicle: saline
[9] = dose: 200.0 mg/kg/injection, schedule: Q01DX001 (ip), vehicle: saline
[10] = dose: 400.0 mg/kg/injection, schedule: Q01DX001 (ip), vehicle: saline
[11] = dose: 100.0 mg/kg/injection, schedule: Q01DX001 (ip), vehicle: Klucel (hydroxypropylcellulose) (HPC)
[12] = dose: 100.0 mg/kg/injection, schedule: Q01DX009 (ip), vehicle: Klucel (hydroxypropylcellulose) (HPC)
[13] = dose: 200.0 mg/kg/injection, schedule: Q01DX001 (ip), vehicle: Klucel (hydroxypropylcellulose) (HPC)
[14] = dose: 200.0 mg/kg/injection, schedule: Q01DX009 (ip), vehicle: Klucel (hydroxypropylcellulose) (HPC)
[15] = dose: 400.0 mg/kg/injection, schedule: Q01DX001 (ip), vehicle: Klucel (hydroxypropylcellulose) (HPC)
[16] = dose: 400.0 mg/kg/injection, schedule: Q01DX009 (ip), vehicle: Klucel (hydroxypropylcellulose) (HPC)
[17] = dose: 400.0 mg/kg/injection, schedule: Q04DX002 (ip), vehicle: Klucel (hydroxypropylcellulose) (HPC)
[18] = dose: 100.0 mg/kg/injection, schedule: Q04DX003 (ip), vehicle: saline with Tween-80
[19] = dose: 200.0 mg/kg/injection, schedule: Q04DX003 (ip), vehicle: saline with Tween-80
[20] = dose: 400.0 mg/kg/injection, schedule: Q04DX003 (ip), vehicle: saline with Tween-80

Measured: T/C

CC(CCCN(CCCl)CCCl)Nc1c2ccccc2nc2c1ccc1ccccc12 (centres undefined)
inactive: dose: 0.15 mg/kg/injection, schedule: Q01DX009 (ip), vehicle: saline 109 % of control | dose: 0.31 mg/kg/injection, schedule: Q01DX009 (ip), vehicle: saline 110 % of control | dose: 0.63 mg/kg/injection, schedule: Q01DX009 (ip), vehicle: saline 122 % of control | dose: 1.25 mg/kg/injection, schedule: Q01DX009 (ip), vehicle: saline 94 % of control | dose: 2.5 mg/kg/injection, schedule: Q01DX009 (ip), vehicle: saline 106 % of control

O=C1OC(c2cccc([N+](=O)[O-])c2)=N/C1=C\c1ccccc1
inactive: [1] 94 % of control | [2] 102 % of control | dose: 400.0 mg/kg/injection, schedule: Q01DX009 (ip), vehicle: saline with Tween-80 94 % of control

O=C(O)c1cc2ccccc2c2cc(Br)ccc12
inactive: dose: 100.0 mg/kg/injection, schedule: Q01DX009 (ip), vehicle: saline sonified 100 % of control | [3] 91 % of control | dose: 200.0 mg/kg/injection, schedule: Q01DX009 (ip), vehicle: saline sonified 97 % of control | [4] 108 % of control | [5] 103 % of control

CNC(=O)c1ccc[n+](CC(=O)Nc2ccc(Cl)cc2)c1
inactive: dose: 100.0 mg/kg/injection, schedule: Q04DX003 (ip), vehicle: acetone 110 % of control | dose: 200.0 mg/kg/injection, schedule: Q04DX003 (ip), vehicle: acetone 98 % of control

Cc1ccc(S(=O)(=O)N/N=C2/CC3CCCCCCC23)cc1 (centres undefined)
inactive: dose: 50.0 mg/kg/injection, schedule: Q04DX002 (ip), vehicle: Klucel (hydroxypropylcellulose) (HPC) 104 % of control | [6] 97 % of control | [7] 111 % of control

O=c1nc2n(CCC[N+](=O)[O-])c3ccccc3nc-2c(=O)[nH]1
inactive: [8] 102 % of control | dose: 100.0 mg/kg/injection, schedule: Q04DX003 (ip), vehicle: saline 88 % of control | [9] 98 % of control | dose: 200.0 mg/kg/injection, schedule: Q04DX003 (ip), vehicle: saline 96 % of control | [10] 102 % of control | dose: 400.0 mg/kg/injection, schedule: Q04DX003 (ip), vehicle: saline 115 % of control

O=Cc1ccc(/C=C2\NC(=O)NC2=O)cc1
inactive: dose: 25.0 mg/kg/injection, schedule: Q01DX009 (ip), vehicle: water 90 % of control | dose: 50.0 mg/kg/injection, schedule: Q01DX009 (ip), vehicle: water 92 % of control | dose: 100.0 mg/kg/injection, schedule: Q01DX009 (ip), vehicle: water 96 % of control | dose: 200.0 mg/kg/injection, schedule: Q01DX009 (ip), vehicle: water 93 % of control

CCc1ccccc1NC(=O)SCc1ccccc1
inactive: [11] 91 % of control | [12] 100 % of control and 90 % of control | [6] 95 % of control and 109 % of control | [3] 87 % of control | [13] 94 % of control | [14] 90 % of control | [7] 97 % of control and 102 % of control | [4] 102 % of control | [15] 89 % of control | [16] 108 % of control and 90 % of control | [17] 92 % of control and 105 % of control | [5] 98 % of control

C[Se]c1ncnc2c(C3OC(CO)C(O)C3O)[nH]nc12 (centres undefined)
inactive: dose: 3.12 mg/kg/injection, schedule: Q01DX005 (ip), vehicle: saline 106 % of control | dose: 3.12 mg/kg/injection, schedule: Q01DX009 (ip), vehicle: saline 112 % of control | dose: 6.25 mg/kg/injection, schedule: Q01DX005 (ip), vehicle: saline 109 % of control | dose: 6.25 mg/kg/injection, schedule: Q01DX009 (ip), vehicle: saline 94 % of control | dose: 12.5 mg/kg/injection, schedule: Q01DX005 (ip), vehicle: saline 104 % of control | dose: 12.5 mg/kg/injection, schedule: Q01DX009 (ip), vehicle: saline 91 % of control

O=C(Nc1ccc(S(=O)(=O)Nc2ccc(N=Nc3ccc(S(=O)(=O)Nc4nccs4)cc3)cc2)cc1)C(SC1=NC=NC2=NC=NC21)SC1=NC=NC2=NC=NC21 (centres undefined)
inactive: dose: 75.0 mg/kg/injection, schedule: Q04DX003 (ip), vehicle: saline 100 % of control | dose: 150.0 mg/kg/injection, schedule: Q04DX003 (ip), vehicle: saline 96 % of control | dose: 300.0 mg/kg/injection, schedule: Q04DX003 (ip), vehicle: saline 98 % of control

CS(=O)(=O)c1ccc2nnnn2n1
inactive: dose: 6.25 mg/kg/injection, schedule: Q04DX003 (ip), vehicle: saline 100 % of control | dose: 12.5 mg/kg/injection, schedule: Q04DX003 (ip), vehicle: saline 103 % of control | dose: 25.0 mg/kg/injection, schedule: Q04DX003 (ip), vehicle: saline 100 % of control

CC(=O)CC(=O)Nc1ccc(-c2ccc(NC(=O)CC(C)=O)c(Cl)c2)cc1Cl
inactive: [12] 95 % of control | [3] 98 % of control | [14] 97 % of control | [4] 98 % of control | [16] 93 % of control | [5] 91 % of control

O=C(O)/C=C\C(=O)Nc1ccccc1Cl
inactive: [12] 102 % of control | [14] 100 % of control | [16] 97 % of control

Cc1ccc(C)c(NC(=O)c2ccc([N+](=O)[O-])cc2)c1
inactive: [6] 100 % of control | [7] 89 % of control | [17] 92 % of control

CCCCCCCCOc1ccccn1
inactive: [1] 110 % of control | [18] 100 % of control | [2] 91 % of control | [19] 105 % of control | [20] 103 % of control

CC(C)CC(NC(=O)C(C)NC(=O)OCc1ccccc1)C(=O)NC(CC(C)C)C(=O)NCC(=O)NC1CCC2(C)C(CCC3C2CCC2(C)C(NC(=O)CNC(=O)C(CC(C)C)NC(=O)C(CC(C)C)NC(=O)C(C)NC(=O)OCc4ccccc4)CCC32)C1 (centres undefined)
inactive: dose: 100.0 mg/kg/injection, schedule: Q01DX009 (sc), vehicle: steriod suspending solution 89 % of control | dose: 100.0 mg/kg/injection, schedule: Q04DX003 (sc), vehicle: steriod suspending solution 89 % of control | dose: 200.0 mg/kg/injection, schedule: Q01DX009 (sc), vehicle: steriod suspending solution 89 % of control | dose: 200.0 mg/kg/injection, schedule: Q04DX003 (sc), vehicle: steriod suspending solution 103 % of control | dose: 400.0 mg/kg/injection, schedule: Q01DX009 (sc), vehicle: steriod suspending solution 94 % of control | dose: 400.0 mg/kg/injection, schedule: Q04DX003 (sc), vehicle: steriod suspending solution 92 % of control

O=S(=O)(OC1CC2C=CC1C21CC1)c1ccc(Br)cc1 (centres undefined)
inactive: [11] 98 % of control | [13] 97 % of control | [15] 94 % of control

CC1=C(C(=O)O)CCCO1
inactive: [8] 98 % of control | [9] 98 % of control | [10] 98 % of control

O=C(CS(=O)(=O)C1CCCCC1)C1CCCCC1
inactive: [18] 94 % of control | [19] 94 % of control | [20] 88 % of control
